Measurements published in the NIST ThermoML archive (doi:10.1016/j.jct.2013.05.036).
Numbers after ± are expanded uncertainties.

Conditions: 101.33 kPa, Liquid, Levitation methods

Row | Compound | viscosity (3050 K) [mPa·s] | viscosity (3100 K) [mPa·s] | viscosity (3150 K) [mPa·s] | viscosity (3200 K) [mPa·s] | viscosity (3250 K) [mPa·s] | viscosity (3300 K) [mPa·s] | viscosity (3350 K) [mPa·s] | viscosity (3400 K) [mPa·s] | viscosity (3450 K) [mPa·s] | viscosity (3500 K) [mPa·s] | viscosity (3550 K) [mPa·s] | viscosity (3600 K) [mPa·s] | viscosity (2900 K) [mPa·s] | viscosity (2950 K) [mPa·s] | viscosity (3000 K) [mPa·s] | further results
1 | [Re] [rhenium] | 14.6 ± 3 | 13.9 ± 2.8 | 13.2 ± 2.7 | 12.5 ± 2.5 | 12 ± 2.4 | 11.4 ± 2.3 | 10.9 ± 2.2 | 10.4 ± 2.1 | 10 ± 2 | 9.6 ± 1.9 | 9.2 ± 1.9 | 8.8 ± 1.8 |  |  |  | viscosity (3034 K): 14.9 ± 3 mPa·s; viscosity (3459 K): 9.9 ± 2 mPa·s; viscosity (3650 K): 8.5 ± 1.7 mPa·s; viscosity (3675 K): 8.4 ± 1.7 mPa·s
2 | [Os] [osmium] |  |  |  |  |  |  |  |  |  |  |  |  |  |  |  | viscosity (3265 K): 7.4 ± 1.5 mPa·s; viscosity (3290 K): 7.2 ± 1.5 mPa·s; viscosity (3306 K): 7 ± 1.4 mPa·s; viscosity (3315 K): 7 ± 1.4 mPa·s; viscosity (3340 K): 6.7 ± 1.4 mPa·s; viscosity (3365 K): 6.5 ± 1.4 mPa·s; viscosity (3390 K): 6.3 ± 1.3 mPa·s; viscosity (3415 K): 6.1 ± 1.3 mPa·s; viscosity (3440 K): 6 ± 1.2 mPa·s; viscosity (3465 K): 5.8 ± 1.2 mPa·s; viscosity (3490 K): 5.6 ± 1.2 mPa·s; viscosity (3515 K): 5.5 ± 1.1 mPa·s; viscosity (3542 K): 5.3 ± 1.1 mPa·s
3 | [W] [tungsten] |  |  |  | 15.7 ± 3.3 | 14.6 ± 3 | 13.7 ± 2.8 | 12.8 ± 2.6 | 12 ± 2.5 | 11.3 ± 2.3 | 10.6 ± 2.2 | 10 ± 2.1 | 9.4 ± 1.9 |  |  |  | viscosity (3155 K): 16.7 ± 3.5 mPa·s; viscosity (3634 K): 9.1 ± 1.9 mPa·s; viscosity (3695 K): 8.5 ± 1.7 mPa·s
4 | [Mo] [molybdenum] | 4.5 ± 0.9 | 4.3 ± 0.9 | 4.2 ± 0.8 |  |  |  |  |  |  |  |  |  | 5 ± 1 | 4.8 ± 1 | 4.6 ± 0.9 | viscosity (2573 K): 6.7 ± 1.4 mPa·s; viscosity (2600 K): 6.6 ± 1.4 mPa·s; viscosity (2650 K): 6.2 ± 1.3 mPa·s; viscosity (2700 K): 5.9 ± 1.2 mPa·s; viscosity (2750 K): 5.7 ± 1.2 mPa·s; viscosity (2800 K): 5.4 ± 1.1 mPa·s; viscosity (2850 K): 5.2 ± 1.1 mPa·s; viscosity (2896 K): 5 ± 1 mPa·s; viscosity (3213 K): 4 ± 0.8 mPa·s
5 | [Ta] [tantalum] | 11.1 ± 2.3 | 10.6 ± 2.2 | 10.1 ± 2.1 | 9.6 ± 2 | 9.2 ± 1.9 | 8.8 ± 1.8 | 8.4 ± 1.7 | 8.1 ± 1.6 | 7.8 ± 1.6 | 7.5 ± 1.5 |  |  | 13.1 ± 2.7 | 12.4 ± 2.5 | 11.7 ± 2.4 | viscosity (2880 K): 13.4 ± 2.7 mPa·s; viscosity (3293 K): 8.9 ± 1.8 mPa·s; viscosity (3514 K): 7.4 ± 1.5 mPa·s
